# Values quoted from earlier work as cited in US20150018665A1, “MOLECULAR AND CELLULAR IMAGING USING ENGINEERED HEMODYNAMIC RESPONSES” (Massachusetts Institute of Technology, priority 2013, published 2015).
# Target: nNOS (Homo sapiens, UniProt P29475)
# Settings: blockade of nNOS
# Sequence of nNOS (P29475 whole entry, species assumed): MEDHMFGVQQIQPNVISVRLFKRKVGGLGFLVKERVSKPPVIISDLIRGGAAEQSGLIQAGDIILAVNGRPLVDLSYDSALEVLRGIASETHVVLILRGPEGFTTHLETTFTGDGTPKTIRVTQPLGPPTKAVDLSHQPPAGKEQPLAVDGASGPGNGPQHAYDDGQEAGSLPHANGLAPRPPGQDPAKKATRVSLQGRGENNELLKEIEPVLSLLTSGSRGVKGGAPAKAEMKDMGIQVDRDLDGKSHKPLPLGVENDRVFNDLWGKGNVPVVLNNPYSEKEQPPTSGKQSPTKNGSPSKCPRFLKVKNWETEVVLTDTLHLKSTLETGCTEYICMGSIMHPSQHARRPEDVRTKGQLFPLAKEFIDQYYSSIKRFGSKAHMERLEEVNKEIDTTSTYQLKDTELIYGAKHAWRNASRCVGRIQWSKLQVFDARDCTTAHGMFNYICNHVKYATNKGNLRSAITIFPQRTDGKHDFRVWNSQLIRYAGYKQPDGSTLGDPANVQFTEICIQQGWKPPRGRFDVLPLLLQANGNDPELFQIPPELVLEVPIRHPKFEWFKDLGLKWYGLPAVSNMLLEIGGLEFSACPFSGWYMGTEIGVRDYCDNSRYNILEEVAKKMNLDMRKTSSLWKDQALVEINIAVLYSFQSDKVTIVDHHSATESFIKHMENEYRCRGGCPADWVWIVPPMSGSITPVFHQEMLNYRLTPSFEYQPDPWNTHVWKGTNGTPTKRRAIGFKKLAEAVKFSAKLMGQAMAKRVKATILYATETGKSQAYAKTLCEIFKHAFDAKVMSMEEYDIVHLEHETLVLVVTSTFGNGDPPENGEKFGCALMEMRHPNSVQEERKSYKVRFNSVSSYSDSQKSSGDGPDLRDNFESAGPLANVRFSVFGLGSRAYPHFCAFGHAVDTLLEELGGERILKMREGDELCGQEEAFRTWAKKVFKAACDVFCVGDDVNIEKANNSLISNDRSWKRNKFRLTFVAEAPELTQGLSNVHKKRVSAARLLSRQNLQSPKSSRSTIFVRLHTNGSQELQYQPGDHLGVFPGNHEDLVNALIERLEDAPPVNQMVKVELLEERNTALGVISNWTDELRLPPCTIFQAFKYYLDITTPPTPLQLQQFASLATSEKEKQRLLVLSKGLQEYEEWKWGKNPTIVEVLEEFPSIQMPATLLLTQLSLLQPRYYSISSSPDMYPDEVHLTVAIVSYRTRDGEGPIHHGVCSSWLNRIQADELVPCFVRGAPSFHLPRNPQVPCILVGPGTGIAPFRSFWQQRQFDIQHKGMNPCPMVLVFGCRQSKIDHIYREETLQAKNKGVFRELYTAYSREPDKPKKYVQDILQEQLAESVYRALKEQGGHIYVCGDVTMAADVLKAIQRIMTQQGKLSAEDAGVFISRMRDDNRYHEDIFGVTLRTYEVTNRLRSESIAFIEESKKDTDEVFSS
structure (smiles),measurement,value
NC(=NCCC[C@H](N)C(=O)O)N[N+](=O)[O-] [L-nitroarginine],effect on fMRI-detectable responses to stimulation,abolishes or sharply reduces
